Reference: patent US4430343A, “Benzimidazole derivatives, process for the preparation thereof and pharmaceutical composition containing the same” (Kanebo, Ltd., priority 1981, dated 1984)
Where a name gives a salt, the structure may show the parent alone.

How the values were obtained:
[1] = test system: histamine-induced lethality; assay: Protecting activity against histamine-induced lethality (method similar to Labell & Tislow); assay type: in vivo, Hartley strain male guinea pigs; settings: for protecting activity against histamine-induced lethality in comparison with that of the compounds of the present invention: relative to compounds of the present invention; for ED50: Cavia porcellus, guinea pigs, oral, 1 hour before histamine 1.1 mg/kg into cephalic vein, survival after two hours, probit method
Protocol: 1. Protecting activity against histamine-induced lethality
(3) Homochlorcyclizine hydrochloride (reference compound)
The test was carried out by a method similar to Labell & Tislow method (cf. J. Pharmacol Exp. Ther., 113, 72, 1955). […] After one hour, histamine (1.1 mg/kg, in a physiological saline solution) was injected to the animals in cephalic vein. After two hours, the number of live guinea pigs was counted, and therefrom ED50 of the compounds was calculated according to probit method.

in vivo = settings: mouse, ddY male mice, oral, observed one week, Weil's method, read-out: Acute toxicity LD50
Protocol: The same compounds as used in the above protecting activity against histamine were used.
The LD50 was calculated based on the number of dead mice within one week according to Weil's method.

[2] = test system: hexobarbital-induced sleep; assay: Potentiating effect on hexobarbital-induced sleep in mice; assay type: in vivo
Excerpt: Besides, the conventional antihistaminics have side-effect such as hypnotic activity.

CN1CCN(c2nc3ccccc3n2Cc2ccccc2)CC1 [1-benzyl-2-(4-methyl-1-piperazinyl)benzimidazole, reference compound]
protecting activity against histamine-induced lethality in comparison with that of the compounds of the present invention [1]: about one severals to one tenth or less

CN1CCN(c2nc3ccccc3n2C)CC1 [1-methyl-2-(4-methyl-1-piperazinyl)benzimidazole, reference compound]
protecting activity against histamine-induced lethality in comparison with that of the compounds of the present invention [1]: about one severals to one tenth or less

CN1CCN(c2nc3ccccc3[nH]2)CC1 [2-(4-methyl-1-piperazinyl)benzimidazole, reference compound]
protecting activity against histamine-induced lethality in comparison with that of the compounds of the present invention [1]: about one severals to one tenth or less

C#CCOCCn1c(N2CCCN(C)CC2)nc2ccccc21 [Example 1, 1-[2-(propargyloxy)ethyl]-2-(4-methyl-1-homopiperazinyl)benzimidazole difumarate]
ED50 [1]: 0.0046 mg/kg
LD50 at 168 h (in vivo): 990 mg/kg

C#CCOCCn1c(N2CCN(C)CC2)nc2ccccc21 [Example 2, 1-[2-(propargyloxy)ethyl]-2-(4-methyl-1-piperazinyl)benzimidazole.3/2fumarate]
potentiating effect on hexobarbital-induced sleep ([2]; 50 mg/kg (p.o.)): did not show such potentiating effect
ED50 [1]: 0.0047 mg/kg
LD50 at 168 h (in vivo): 818 mg/kg

CCOCCn1c(N2CCCN(C)CC2)nc2ccccc21 [Example 3, 1-[2-(ethoxy)ethyl]-2-(4-methyl-1-homopiperazinyl)benzimidazole.difumarate]
potentiating effect on hexobarbital-induced sleep ([2]; 50 mg/kg (p.o.)): did not show such potentiating effect
ED50 [1]: 0.0047 mg/kg
LD50 at 168 h (in vivo): 628 mg/kg

C=CCOCCn1c(N2CCN(C)CC2)nc2ccccc21 [Example 4, 1-[2-(allyloxy)ethyl]-2-(4-methyl-1-piperazinyl)benzimidazole.3/2 fumarate]
ED50 [1]: 0.0058 mg/kg
LD50 at 168 h (in vivo): 1640 mg/kg

CCOCCn1c(N2CCN(C)CC2)nc2ccccc21 [Example 5, 1-[2-(ethoxy)ethyl]-2-(4-methyl-1-piperazinyl)benzimidazole.3/2 fumarate]
ED50 [1]: 0.007 mg/kg
LD50 at 168 h (in vivo): 1490 mg/kg

C=CCOCCn1c(N2CCCN(C)CC2)nc2ccccc21 [Example 6, 1-[2-(allyloxy)ethyl]-2-(4-methyl-1-homopiperazinyl)benzimidazole difumarate]
ED50 [1]: 0.0088 mg/kg
LD50 at 168 h (in vivo): 904 mg/kg

CCCOCCn1c(N2CCCN(C)CC2)nc2ccccc21 [Example 7, 1-[2-(n-propoxy)ethyl]-2-(4-methyl-1-homopiperazinyl)benzimidazole difumarate]
ED50 [1]: 0.0095 mg/kg
LD50 at 168 h (in vivo): 884 mg/kg

CCOCCn1c(N2CCNCC2)nc2ccccc21 [Example 8, 1-[2-(ethoxy)ethyl]-2-(1-piperazinyl)benzimidazole.3/2 fumarate]
potentiating effect on hexobarbital-induced sleep ([2]; 50 mg/kg (p.o.)): did not show such potentiating effect
ED50 [1]: 0.011 mg/kg
LD50 at 168 h (in vivo): 2220 mg/kg

CCOCCn1c(N2CCN(CC)CC2)nc2ccccc21 [Example 9, 1-[2-(ethoxy)ethyl]-2-(4-ethyl-1-piperazinyl)benzimidazole.3/2 fumarate]
potentiating effect on hexobarbital-induced sleep ([2]; 50 mg/kg (p.o.)): did not show such potentiating effect
ED50 [1]: 0.013 mg/kg
LD50 at 168 h (in vivo): 2640 mg/kg

CN1CCCN(c2nc3ccccc3n2CCOc2ccccc2)CC1 [Example 10, 1-[2-(phenoxy)ethyl]-2-(4-methyl-1-homopiperazinyl)benzimidazole difumarate]
ED50 [1]: 0.014 mg/kg
LD50 at 168 h (in vivo): 1010 mg/kg

CCCOCCn1c(N2CCN(C)CC2)nc2ccccc21 [Example 11, 1-[2-(n-propoxy)ethyl]-2-(4-methyl-1-piperazinyl)benzimidazole.3/2 fumarate]
ED50 [1]: 0.015 mg/kg
LD50 at 168 h (in vivo): 2300 mg/kg

CN1CCN(c2nc3ccccc3n2CCOc2ccccc2)CC1 [Example 12, 1-[2-(phenoxy)ethyl]-2-(4-methyl-1-piperazinyl)benzimidazole.3/2 fumarate]
ED50 [1]: 0.017 mg/kg
LD50 at 168 h (in vivo): 1110 mg/kg

CN1CCCN(C(c2ccccc2)c2ccc(Cl)cc2)CC1 (stereo not shown) [Homochlorcyclizine hydrochloride, reference compound]
potentiating effect on hexobarbital-induced sleep ([2]; 25 mg/kg (p.o.)): remarkable potentiating effect
ED50 [1]: 0.26 mg/kg
LD50 at 168 h (in vivo): 382 mg/kg
